Results: patent US11198673B2, “Therapeutic compounds and compositions” (eXIthera Pharmaceuticals, Inc., priority 2014, dated 2021)

How the values were obtained:
[1] = target: T1, human Factor XIa (Homo sapiens, UniProt P03951); assay: Factor XIa enzyme inhibition assay (IC50, purified enzyme); format: biochemical; conditions: purified enzyme 0.25 nM, substrate 50 μM; read-out: Potency hFXIa IC50
T1 construct: Enzyme: Factor XIa; 0.25 μM in 50% glycerol (20 μg/mL)
Description: (§1) • Assay buffer: 20 mM Hepes, pH 7.4; 150 mM NaCl; 0.02% Tween 20 • Compounds: 10 mM stocks in DMSO • Substrate: 20 mM Glp-Pro-Arg-AMC, 25 mg/2.3 mL H2O (store at +4° C.) [Factor XIa, thrombin, and trypsin] • 20 mM Pro-Phe-Arg-AMC (Bachem I-1295), 25 mg/2.2 mL H2O (store at +4° C.) [Factor Xa] • Enzyme: Factor XIa; 0.25 μM in 50% glycerol (20 μg/mL) • Trypsin; 0.2 μM in 50% glycerol (4.8 μg/mL) • Thrombin; 0.2 μM in 50% glycerol (7.34 μg/mL) • Factor Xa; 0.2 μM in 50% glycerol (9.2 μg/mL) • These stocks are aliquoted ([…]) and stored at −20° C. Methods: • 1. Dilute the substrate to 100 μM in assay buffer (30 μL/6 mL). The enzyme is diluted to 0.5 nM just prior to use (12 μL/6 mL for Factor XIa; 15 μL/6 mL for all of the rest.) • 2. Pipette 50 μL of substrate into each well of the 96 well (12×8) microtiter plate. (Column 1 is used as the 100% activity control and receives no compound, and Column 12 is the blank and receives no enzyme.) Add an additional 46 μL to column 2. • 3. Pipette 4 μL of each compound into the appropriate well in column 2 of the plate (unknowns assayed in triplicate, standard assayed in duplicate). The final compound concentration will be 1/50th of the stock. • 4. Serially two-fold dilute the compound by mixing the sample in column 2, removing 50 μL to the next well (column 3), mix and remove to column 4, etc. until column 11. After mixing column 11, remove 50 μL and discard. • 5. Pipette 50 μL of buffer into column 12. Initiate the reaction by adding 50 μL of enzyme solution to each well of columns 1-11 as rapidly as possible. • 6. Read the plate in a spectrophotometer (SpectraMax) at 30° C., wherein each well is measured every 60 s for 30 min. For Factor Xa assays, each well is measured every 1 min for a total of 60 min. • 7. For Factor XIa assays, the compounds are assayed, in duplicate, at 3 different starting concentrations, 20, 2, and 0.2 μM; 1:10, 1:100, and 1:1000 dil'n of 10 mM stock. All data sets are combined for graphing and data fitting. • 8. Data can be used both for estimation of IC50 and for estimation of Kon.
Potential inhibitors of Factor XIa were evaluated using the following assay.
S-2366, pyroGlu-Pro-Arg-7-methylaminocourin (AMC), available from CPC Scientific, Inc., is based on the substrate pyro-Glu-Pro-Arg-pNA, available from Diapharma Group, Inc. (Columbus, Ohio), where the p-nitroanaline group is replaced with 7-methylaminocoumarin (AMC).
The final concentration of the substrate in the assay was 50 μM, and the final concentration of the enzyme was 0.25 nM. Inhibitors were tested by serial dilution over an appropriate range to yield a dose response curve for determination of the inhibitors' IC50 value. The assay mixture was read every minute for 30 minutes in order to generate progress curves. The plates were read in a Spectramax m5 Multimode Plate Reader (Molecular Devices LLC, Sunnyvale, Calif.). Dose response curves were fit to Equation 1 below in which A is the maximum inhibition, B is the minimum inhibition, C is the IC50, and D is the Hill coefficient. [(A−B)/(1+(X/C)^D)]+B (Equation 1)

[2] = target: T2, Factor Xa (Homo sapiens, UniProt P00742); assay: Dose response assay for protease inhibitors: Factor Xa (FXIa fold selectivity); format: biochemical; conditions: fold selectivity for FXIa over Factor Xa
T2 construct: Factor Xa; 0.2 μM in 50% glycerol (9.2 μg/mL)
T2 sequence (P00742 235-488 limits assumed): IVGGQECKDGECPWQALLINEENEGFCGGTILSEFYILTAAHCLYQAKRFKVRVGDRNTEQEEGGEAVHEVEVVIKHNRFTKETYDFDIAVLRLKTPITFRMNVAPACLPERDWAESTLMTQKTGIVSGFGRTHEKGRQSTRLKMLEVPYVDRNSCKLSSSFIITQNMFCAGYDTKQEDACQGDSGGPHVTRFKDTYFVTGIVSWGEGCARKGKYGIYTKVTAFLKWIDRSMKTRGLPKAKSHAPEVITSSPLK
T2 sequence (P00742 41-179 partner limits assumed): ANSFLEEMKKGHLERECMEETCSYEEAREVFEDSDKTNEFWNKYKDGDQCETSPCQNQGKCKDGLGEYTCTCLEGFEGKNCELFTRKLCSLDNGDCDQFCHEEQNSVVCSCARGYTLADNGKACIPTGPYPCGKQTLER
Description: as §1

[3] = target: T3, Thrombin (Homo sapiens, UniProt P00734); assay: Dose response assay for protease inhibitors: thrombin (FXIa fold selectivity); format: biochemical; conditions: fold selectivity for FXIa over thrombin
T3 construct: Thrombin; 0.2 μM in 50% glycerol (7.34 μg/mL)
Description: as §1

[4] = system: Trypsin; assay: Dose response assay for protease inhibitors: trypsin (FXIa fold selectivity); format: biochemical; conditions: fold selectivity for FXIa over trypsin
Description: as §1

[5] = β-Lactam stability in rat plasma; format: in vitro ADME; conditions: normal rat plasma, room temperature; read-out: Rat Plasma Stability (T1/2; min)
Description: Normal rat plasma, stored at −80° C.
• 1. Place 6 μL of each compound into 0.5 mL microcentrifuge tubes or 96-well U-bottom, polypropylene microtiter plate • 2. Place 40 μL of acetonitrile (AcN) into 0.5 mL microcentrifuge tubes labeled 1-9 • 3. Add 114 μL of plasma to each compound • 4. Sample 10 μL of compound/plasma into AcN at 2, 10, 20, 30, 60, 90, 120, 240, and 480 min of incubation at room temperature • 5. Mix each time point after adding sample and place on ice. • 6. Centrifuge time points (12,000 rpm, 3 min), remove 15 μL of the supernatant and mix with 15 μL 0.1% TFA in a V-bottom microtiter plate. • 7. Place microtiter plate in autosampler of HPLC and analyze on Restek Pinnacle C18 column (2.1×100 mm). • 8. Generate extracted ion chromatogram for parent compound and parent compound+18 (H2O). Integrate extracted ion chromatograms (EIC) and plot % total peak area for parent and adduct versus time. Fit to a model of single phase exponential decay [Y=A0*exp(−k*x)+C]. T½ is equal to ln(2)/k.

T1 sequence (P03951 388-625 limits assumed): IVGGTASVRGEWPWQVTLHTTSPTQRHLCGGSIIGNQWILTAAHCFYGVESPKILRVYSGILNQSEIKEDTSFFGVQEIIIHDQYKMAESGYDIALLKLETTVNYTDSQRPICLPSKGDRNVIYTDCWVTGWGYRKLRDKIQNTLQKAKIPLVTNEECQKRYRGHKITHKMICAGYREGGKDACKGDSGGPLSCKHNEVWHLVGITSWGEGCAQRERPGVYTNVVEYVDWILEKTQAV
T1 sequence (P03951 19-387 partner limits assumed): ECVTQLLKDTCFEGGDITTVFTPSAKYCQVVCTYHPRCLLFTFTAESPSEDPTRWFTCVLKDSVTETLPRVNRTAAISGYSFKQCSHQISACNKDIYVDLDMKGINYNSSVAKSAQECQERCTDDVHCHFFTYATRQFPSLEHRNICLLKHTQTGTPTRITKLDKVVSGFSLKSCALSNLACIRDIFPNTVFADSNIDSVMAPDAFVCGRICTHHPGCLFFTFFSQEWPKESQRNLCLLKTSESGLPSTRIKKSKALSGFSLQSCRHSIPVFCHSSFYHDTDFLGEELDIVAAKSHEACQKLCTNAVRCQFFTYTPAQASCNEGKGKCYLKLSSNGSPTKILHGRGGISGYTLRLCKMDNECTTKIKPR

SMILES | IC50 [1] [nM] | FXIa Fold Selectivity FXa [2] | FXIa Fold Selectivity Thrombin [3] | half-life [5] [h] | FXIa Fold Selectivity Trypsin [4]
C[C@@H](NC(=O)N1C(=O)[C@H](Cc2ccnc(N)c2)[C@H]1C(=O)O)c1cccnc1 [Example 40] | 10 to 100 | I (“I” indicates >1000) | I (“I” indicates >1000) | > 1.67 | I (“I” indicates >1000)
CC(NC(=O)N1C(=O)[C@H](Cc2ccnc(N)c2)[C@H]1C(=O)O)c1cccc(F)c1 (some centres unmarked) [Example 42] | < 10 | I (“I” indicates >1000) | I (“I” indicates >1000) | > 1.67 | H (“H” indicates 500-1000)
Nc1cc(C[C@H]2C(=O)N(C(=O)NCc3cccc4ccccc34)[C@@H]2C(=O)O)ccn1 [Example 43] | 10 to 100 | G (“G” indicates 1-500) | G (“G” indicates 1-500) | > 1.67 | G (“G” indicates 1-500)
Nc1cc(C[C@H]2C(=O)N(C(=O)N[C@@H](c3ccccc3)C(F)(F)F)[C@@H]2C(=O)O)ccn1 [Example 44] | < 10 | I (“I” indicates >1000) | I (“I” indicates >1000) | > 1.67 | G (“G” indicates 1-500)
CC(NC(=O)N1C(=O)[C@H](Cc2ccnc(N)c2)[C@H]1C(=O)O)c1ccc(OC(F)(F)F)cc1 (some centres unmarked) [Example 47] | < 10 | I (“I” indicates >1000) | I (“I” indicates >1000) | > 1.67 | H (“H” indicates 500-1000)
Nc1cc(C[C@H]2C(=O)N(C(=O)NCc3ccccc3)[C@@H]2C(=O)O)ccn1 [Example 48] | 100 to 1000 | G (“G” indicates 1-500) | G (“G” indicates 1-500) | > 1.67 | G (“G” indicates 1-500)
C[C@@H](NC(=O)N1C(=O)[C@H](Cc2ccnc(N)c2)[C@H]1C(=O)O)c1cccc(OC(F)(F)F)c1 [Example 49] | < 10 | H (“H” indicates 500-1000) | I (“I” indicates >1000) | > 1.67 | G (“G” indicates 1-500)
CCCC(CCC)NC(=O)N1C(=O)[C@H](Cc2ccnc(N)c2)[C@H]1C(=O)O [Example 52] | 10 to 100 | H (“H” indicates 500-1000) | I (“I” indicates >1000) | > 1.67 | G (“G” indicates 1-500)
CON=C[C@@H]1[C@@H](Cc2ccnc(N)c2)C(=O)N1C(=O)N[C@H](C)c1ccccc1 [Example 53] | 10 to 100 | G (“G” indicates 1-500) | G (“G” indicates 1-500) | < 1.67 | G (“G” indicates 1-500)

More lines, main results first:

IC50 [1] [nM] | FXIa Fold Selectivity FXa [2] | FXIa Fold Selectivity Thrombin [3] | half-life [5] [h] | SMILES | FXIa Fold Selectivity Trypsin [4]
> 1000 | G (“G” indicates 1-500) | G (“G” indicates 1-500) | > 1.67 | CNC(=O)N1C(=O)[C@H](Cc2ccnc(N)c2)[C@H]1C(=O)O [Example 55] | G (“G” indicates 1-500)
< 10 | G (“G” indicates 1-500) | I (“I” indicates >1000) | > 1.67 | C[C@@H](NC(=O)N1C(=O)[C@H](Cc2ccnc(N)c2)[C@H]1C(=O)O)c1ccc(F)c(F)c1 [Example 68] | I (“I” indicates >1000)
< 10 | G (“G” indicates 1-500) | I (“I” indicates >1000) | > 1.67 | CCC[C@@H](NC(=O)N1C(=O)[C@H](Cc2ccnc(N)c2)[C@H]1C(=O)O)c1ccc2c(c1)OC(F)(F)O2 [Example 89] | G (“G” indicates 1-500)
< 10 | G (“G” indicates 1-500) | I (“I” indicates >1000) | > 1.67 | CNc1cc(C[C@H]2C(=O)N(C(=O)N[C@H](C)c3ccc4c(c3)OC(F)(F)O4)[C@@H]2C(=O)O)ccn1 [Example 98] | I (“I” indicates >1000)
< 10 | I (“I” indicates >1000) | I (“I” indicates >1000) | < 1.67 | CCOC(=O)[C@@H]1[C@@H](Cc2ccnc(NC)c2)C(=O)N1C(=O)N[C@H](C)c1ccc2c(c1)OC(F)(F)O2 [Example 99] | G (“G” indicates 1-500)
< 10 | I (“I” indicates >1000) | H (“H” indicates 500-1000) | < 1.67 | CCOC(=O)[C@@H]1[C@@H](Cc2ccnc(N)c2)C(=O)N1C(=O)N[C@H](C)c1ccc(OC(F)(F)F)cc1 [Example 103] | G (“G” indicates 1-500)
< 10 | I (“I” indicates >1000) | I (“I” indicates >1000) | > 1.67 | C[C@@H](NC(=O)N1C(=O)[C@H](Cc2ccnc(N)c2)[C@H]1C(=O)O)C1CCCCCCC1 [Example 104] | I (“I” indicates >1000)
100 to 1000 | G (“G” indicates 1-500) | G (“G” indicates 1-500) | > 1.67 | O=C(O)[C@@H]1[C@@H](Cc2ccncc2)C(=O)N1C(=O)NC(c1ccccc1)c1ccccc1 [Example 123] | G (“G” indicates 1-500)
100 to 1000 | G (“G” indicates 1-500) | G (“G” indicates 1-500) | > 1.67 | C[C@H](NC(=O)N1C(=O)[C@H](Cc2ccnc(N)c2)[C@H]1C(=O)O)c1ccc2c(c1)OC(F)(F)O2 [Example 130] | G (“G” indicates 1-500)
100 to 1000 | G (“G” indicates 1-500) | G (“G” indicates 1-500) | < 1.67 | CCOC(=O)[C@@H]1C(Cc2ccnc(Cl)c2)C(=O)N1C(=O)N[C@H](C)c1ccc2c(c1)OC(F)(F)O2 (some centres unmarked) [Example 132] | G (“G” indicates 1-500)
